Measured values from patent US20090099237A1, “Methods of treating inflammatory diseases” (Roche Palo Alto LLC, priority 2007, published 2009).

Assays:
Assay in all cases: KinomeScan kinase profiling
Assay type in all cases: binding
Settings in all cases: 10 μM
[1] = target: MKNK2 (Homo sapiens, UniProt Q9HBH9)
From the text: (§1) The selectivity of a given CK1α, CK1α-CK1δ, CK1α-CK1ε or CK1α-CK1δ-CK1ε inhibitor compound can be determined by testing the compound against a panel of known kinases. An example of such a kinase profiling technology is the “KinomeScan” from Ambit Biosciences in which compounds can be screened for their modulatory activities against more than 200 known kinases.

[2] = target: T1, EPHB1 (Homo sapiens, UniProt P54762)
T1 construct: purchased Ambit Biosciences (San Diego, Calif.)
From the text: as §1

[3] = target: T2, FLT4 (Homo sapiens, UniProt P35916)
T2 construct: purchased Ambit Biosciences
From the text: as §1

[4] = target: T3, CAMK2A (Homo sapiens, UniProt Q9UQM7)
T3 construct: purchased Ambit Biosciences
From the text: as §1

[5] = target: MYLK2 (Homo sapiens, UniProt Q9H1R3)
From the text: as §1

[6] = target: PAK7/PAK5 (Homo sapiens, UniProt Q9P286)
From the text: as §1

[7] = target: T4, CAMK1D (Homo sapiens, UniProt Q8IU85)
T4 construct: purchased Ambit Biosciences
From the text: as §1

[8] = target: T5, VEGFR2 (Homo sapiens, UniProt P35968)
T5 construct: purchased Ambit Biosciences
From the text: as §1

[9] = target: T6, ABL2 (Homo sapiens, UniProt P42684)
T6 construct: purchased Ambit Biosciences
From the text: as §1

[10] = target: T7, ULK3(mouse) (Mus musculus, UniProt Q3U3Q1)
T7 construct: purchased Ambit Biosciences
From the text: as §1

[11] = target: T8, TIE2 (Homo sapiens, UniProt Q02763)
T8 construct: purchased Ambit Biosciences
From the text: as §1

[12] = target: PHKG2 (Homo sapiens, UniProt P15735)
From the text: as §1

[13] = target: T9, FES (Homo sapiens, UniProt P07332)
T9 construct: purchased Ambit Biosciences
From the text: as §1

[14] = target: T10, BTK (Homo sapiens, UniProt Q06187)
T10 construct: purchased Ambit Biosciences
From the text: as §1

[15] = target: T11, SRC (Homo sapiens, UniProt P12931)
T11 construct: purchased Ambit Biosciences
From the text: as §1

[16] = target: T12, PTK2 (Homo sapiens, UniProt Q05397)
T12 construct: purchased Ambit Biosciences
From the text: as §1

[17] = target: T13, RAF1 (Homo sapiens, UniProt P04049)
T13 construct: purchased Ambit Biosciences
From the text: as §1

[18] = target: T14, CAMK2D (Homo sapiens, UniProt Q13557)
T14 construct: purchased Ambit Biosciences
From the text: as §1

[19] = target: T15, EPHA7 (Homo sapiens, UniProt Q15375)
T15 construct: purchased Ambit Biosciences (San Diego, Calif.)
From the text: as §1

[20] = target: T16, TNIK (Homo sapiens, UniProt Q9UKE5)
T16 construct: purchased Ambit Biosciences
From the text: as §1

[21] = target: T17, ROS1 (Homo sapiens, UniProt P08922)
T17 construct: purchased Ambit Biosciences
From the text: as §1

[22] = target: NEK9 (Homo sapiens, UniProt Q8TD19)
From the text: as §1

[23] = target: T18, TXK (Homo sapiens, UniProt P42681)
T18 construct: purchased Ambit Biosciences
From the text: as §1

[24] = target: T19, CLK1 (Homo sapiens, UniProt P49759)
T19 construct: purchased Ambit Biosciences (San Diego, Calif.)
From the text: as §1

[25] = target: T20, ERBB4 (Homo sapiens, UniProt Q15303)
T20 construct: purchased Ambit Biosciences
From the text: as §1

[26] = target: T21, AAK1 (Homo sapiens, UniProt Q2M2I8)
T21 construct: purchased Ambit Biosciences
From the text: as §1

[27] = target: T22, CAMK1 (Homo sapiens, UniProt Q14012)
T22 construct: purchased Ambit Biosciences
From the text: as §1

[28] = target: T23, RPS6KA5 (Homo sapiens, UniProt O75582)
T23 construct: purchased Ambit Biosciences
From the text: as §1

[29] = target: T24, FLT3 (Homo sapiens, UniProt P36888)
T24 construct: purchased Ambit Biosciences
From the text: as §1

[30] = target: T25, AURKC (Homo sapiens, UniProt Q9UQB9)
T25 construct: purchased Ambit Biosciences
From the text: as §1

[31] = target: T26, JNK1 (Homo sapiens, UniProt P45983)
T26 construct: purchased Ambit Biosciences
From the text: as §1

[32] = target: MARK2 (Homo sapiens, UniProt Q7KZI7)
From the text: as §1

[33] = target: T27, CAMKK1 (Homo sapiens, UniProt Q8N5S9)
T27 construct: purchased Ambit Biosciences (San Diego, Calif.)
From the text: as §1

[34] = target: T28, DAPK3 (Homo sapiens, UniProt O43293)
T28 construct: purchased Ambit Biosciences (San Diego, Calif.)
From the text: as §1

[35] = target: T29, PKMYT1 (Homo sapiens, UniProt Q99640)
T29 construct: purchased Ambit Biosciences
From the text: as §1

[36] = target: T30, ERBB2 (Homo sapiens, UniProt P04626)
T30 construct: purchased Ambit Biosciences
From the text: as §1

[37] = target: T31, ACK1 (Homo sapiens, UniProt Q07912)
T31 construct: purchased Ambit Biosciences
From the text: as §1

[38] = target: NEK6 (Homo sapiens, UniProt Q9HC98)
From the text: as §1

[39] = target: PAK6 (Homo sapiens, UniProt Q9NQU5)
From the text: as §1

Chain of NEK6 (Q9HC98 whole entry): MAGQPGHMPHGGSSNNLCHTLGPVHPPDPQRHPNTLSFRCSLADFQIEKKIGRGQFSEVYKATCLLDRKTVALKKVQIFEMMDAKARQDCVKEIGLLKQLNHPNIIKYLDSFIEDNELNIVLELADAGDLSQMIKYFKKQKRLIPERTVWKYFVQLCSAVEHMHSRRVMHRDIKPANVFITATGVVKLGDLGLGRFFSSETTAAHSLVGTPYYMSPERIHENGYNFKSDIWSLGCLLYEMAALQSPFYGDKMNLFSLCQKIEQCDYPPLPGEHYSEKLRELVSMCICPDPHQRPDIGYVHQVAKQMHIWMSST
Chain of MKNK2 (Q9HBH9 whole entry): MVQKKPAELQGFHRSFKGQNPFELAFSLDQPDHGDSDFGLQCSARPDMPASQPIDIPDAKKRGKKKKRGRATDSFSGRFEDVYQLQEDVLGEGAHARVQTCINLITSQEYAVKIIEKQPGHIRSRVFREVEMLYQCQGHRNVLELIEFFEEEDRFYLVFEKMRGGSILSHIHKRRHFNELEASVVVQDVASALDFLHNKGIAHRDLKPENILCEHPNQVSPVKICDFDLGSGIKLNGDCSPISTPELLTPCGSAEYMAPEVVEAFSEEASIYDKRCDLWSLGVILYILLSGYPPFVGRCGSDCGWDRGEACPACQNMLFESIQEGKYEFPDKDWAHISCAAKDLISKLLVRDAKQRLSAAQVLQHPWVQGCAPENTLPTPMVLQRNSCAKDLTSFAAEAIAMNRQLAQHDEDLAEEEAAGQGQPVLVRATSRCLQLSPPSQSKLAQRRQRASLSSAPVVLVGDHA
T14 sequence (Q13557 whole entry): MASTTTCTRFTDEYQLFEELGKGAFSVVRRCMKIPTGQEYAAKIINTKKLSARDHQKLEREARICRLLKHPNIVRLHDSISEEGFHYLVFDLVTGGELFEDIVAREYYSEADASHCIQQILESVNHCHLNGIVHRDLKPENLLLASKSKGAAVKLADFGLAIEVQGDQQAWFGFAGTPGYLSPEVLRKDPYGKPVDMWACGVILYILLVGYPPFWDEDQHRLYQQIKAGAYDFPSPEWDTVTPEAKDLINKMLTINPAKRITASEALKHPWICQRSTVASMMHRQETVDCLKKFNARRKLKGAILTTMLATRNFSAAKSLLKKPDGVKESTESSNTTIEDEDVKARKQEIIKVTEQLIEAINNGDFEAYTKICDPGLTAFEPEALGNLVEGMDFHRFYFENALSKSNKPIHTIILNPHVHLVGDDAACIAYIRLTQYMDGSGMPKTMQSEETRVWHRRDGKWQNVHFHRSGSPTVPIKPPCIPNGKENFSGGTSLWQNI
T31 sequence (Q07912 whole entry): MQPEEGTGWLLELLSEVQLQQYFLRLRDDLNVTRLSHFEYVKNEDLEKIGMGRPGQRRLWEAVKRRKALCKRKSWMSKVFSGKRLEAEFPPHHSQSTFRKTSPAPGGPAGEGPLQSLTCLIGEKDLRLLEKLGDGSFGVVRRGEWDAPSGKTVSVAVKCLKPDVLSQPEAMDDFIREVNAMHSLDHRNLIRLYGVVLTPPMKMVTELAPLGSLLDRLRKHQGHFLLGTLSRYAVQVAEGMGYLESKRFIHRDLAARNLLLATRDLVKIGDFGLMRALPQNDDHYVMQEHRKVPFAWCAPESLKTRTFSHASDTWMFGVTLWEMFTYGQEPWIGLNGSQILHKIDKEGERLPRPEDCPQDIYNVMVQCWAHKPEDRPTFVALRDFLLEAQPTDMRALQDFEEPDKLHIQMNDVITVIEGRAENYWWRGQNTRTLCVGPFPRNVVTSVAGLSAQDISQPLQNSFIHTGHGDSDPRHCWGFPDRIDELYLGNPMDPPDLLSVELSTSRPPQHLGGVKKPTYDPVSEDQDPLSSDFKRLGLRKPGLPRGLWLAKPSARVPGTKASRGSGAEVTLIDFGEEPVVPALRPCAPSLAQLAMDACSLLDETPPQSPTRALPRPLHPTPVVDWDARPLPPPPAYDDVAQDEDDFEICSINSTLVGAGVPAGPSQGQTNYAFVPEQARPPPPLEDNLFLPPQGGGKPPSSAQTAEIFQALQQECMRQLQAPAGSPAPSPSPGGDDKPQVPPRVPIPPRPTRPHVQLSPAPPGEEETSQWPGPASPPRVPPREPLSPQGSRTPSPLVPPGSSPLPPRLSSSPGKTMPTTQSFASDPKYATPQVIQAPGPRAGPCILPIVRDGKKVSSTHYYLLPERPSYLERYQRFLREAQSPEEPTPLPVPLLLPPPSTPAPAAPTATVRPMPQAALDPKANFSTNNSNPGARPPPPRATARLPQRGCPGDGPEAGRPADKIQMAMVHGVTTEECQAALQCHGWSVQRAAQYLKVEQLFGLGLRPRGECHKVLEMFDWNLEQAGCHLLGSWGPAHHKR
T30 sequence (P04626 23-1255): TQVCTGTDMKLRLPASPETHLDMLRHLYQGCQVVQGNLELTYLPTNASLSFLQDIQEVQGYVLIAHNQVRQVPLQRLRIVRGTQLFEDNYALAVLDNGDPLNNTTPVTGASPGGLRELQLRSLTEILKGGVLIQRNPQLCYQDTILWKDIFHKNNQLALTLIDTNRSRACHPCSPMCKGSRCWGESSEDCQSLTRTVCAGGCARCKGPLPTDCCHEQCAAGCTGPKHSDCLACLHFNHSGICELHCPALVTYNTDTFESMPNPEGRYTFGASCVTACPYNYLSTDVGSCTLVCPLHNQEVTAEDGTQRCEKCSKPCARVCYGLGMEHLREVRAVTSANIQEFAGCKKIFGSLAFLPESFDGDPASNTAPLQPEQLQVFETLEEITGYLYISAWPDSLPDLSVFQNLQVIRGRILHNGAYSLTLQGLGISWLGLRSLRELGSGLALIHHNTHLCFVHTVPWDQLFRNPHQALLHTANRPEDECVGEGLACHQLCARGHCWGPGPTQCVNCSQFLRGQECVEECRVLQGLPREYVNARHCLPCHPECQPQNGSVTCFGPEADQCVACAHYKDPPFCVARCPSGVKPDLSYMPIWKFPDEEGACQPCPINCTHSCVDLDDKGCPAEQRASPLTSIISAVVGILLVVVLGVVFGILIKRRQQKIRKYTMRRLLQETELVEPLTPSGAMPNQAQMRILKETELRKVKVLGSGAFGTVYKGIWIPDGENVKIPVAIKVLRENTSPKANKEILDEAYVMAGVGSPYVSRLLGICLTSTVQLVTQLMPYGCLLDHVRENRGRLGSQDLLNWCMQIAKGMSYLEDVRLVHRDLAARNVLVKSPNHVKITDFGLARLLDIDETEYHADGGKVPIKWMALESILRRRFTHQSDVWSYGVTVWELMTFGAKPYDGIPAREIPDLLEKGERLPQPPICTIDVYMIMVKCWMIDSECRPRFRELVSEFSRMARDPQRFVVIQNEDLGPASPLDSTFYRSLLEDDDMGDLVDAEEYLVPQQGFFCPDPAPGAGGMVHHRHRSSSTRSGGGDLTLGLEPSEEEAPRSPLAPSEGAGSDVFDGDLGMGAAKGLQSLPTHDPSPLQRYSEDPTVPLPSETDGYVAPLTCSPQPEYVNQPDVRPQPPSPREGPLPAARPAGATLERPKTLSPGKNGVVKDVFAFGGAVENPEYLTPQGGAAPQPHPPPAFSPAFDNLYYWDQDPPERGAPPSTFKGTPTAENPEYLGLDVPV
T12 sequence (Q05397 whole entry): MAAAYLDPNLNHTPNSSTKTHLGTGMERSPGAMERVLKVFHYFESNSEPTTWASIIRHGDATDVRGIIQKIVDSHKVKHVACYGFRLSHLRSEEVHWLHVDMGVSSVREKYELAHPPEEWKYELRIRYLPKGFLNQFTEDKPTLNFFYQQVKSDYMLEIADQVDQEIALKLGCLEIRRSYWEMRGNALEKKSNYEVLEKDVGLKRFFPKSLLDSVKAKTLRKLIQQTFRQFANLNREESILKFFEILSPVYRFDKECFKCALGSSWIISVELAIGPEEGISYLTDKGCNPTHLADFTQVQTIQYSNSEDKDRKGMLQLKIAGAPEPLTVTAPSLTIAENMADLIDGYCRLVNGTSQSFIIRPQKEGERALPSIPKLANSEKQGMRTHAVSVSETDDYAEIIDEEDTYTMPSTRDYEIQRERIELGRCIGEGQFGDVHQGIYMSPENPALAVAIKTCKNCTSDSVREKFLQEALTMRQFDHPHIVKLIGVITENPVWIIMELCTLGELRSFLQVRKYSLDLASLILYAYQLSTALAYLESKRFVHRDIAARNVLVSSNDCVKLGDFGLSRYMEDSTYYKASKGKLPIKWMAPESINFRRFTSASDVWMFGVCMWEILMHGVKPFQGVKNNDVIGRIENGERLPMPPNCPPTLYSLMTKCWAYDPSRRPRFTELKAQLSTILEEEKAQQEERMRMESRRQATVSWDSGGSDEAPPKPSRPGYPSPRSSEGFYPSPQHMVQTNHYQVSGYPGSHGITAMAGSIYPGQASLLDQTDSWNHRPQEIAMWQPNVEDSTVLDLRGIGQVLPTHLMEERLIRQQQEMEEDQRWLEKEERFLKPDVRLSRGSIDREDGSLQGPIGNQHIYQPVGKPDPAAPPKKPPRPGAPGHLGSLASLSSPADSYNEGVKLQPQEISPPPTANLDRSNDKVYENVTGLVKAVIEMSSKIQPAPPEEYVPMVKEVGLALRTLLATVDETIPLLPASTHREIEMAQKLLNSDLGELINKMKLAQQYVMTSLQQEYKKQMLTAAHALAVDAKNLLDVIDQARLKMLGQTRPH
T25 sequence (Q9UQB9 whole entry): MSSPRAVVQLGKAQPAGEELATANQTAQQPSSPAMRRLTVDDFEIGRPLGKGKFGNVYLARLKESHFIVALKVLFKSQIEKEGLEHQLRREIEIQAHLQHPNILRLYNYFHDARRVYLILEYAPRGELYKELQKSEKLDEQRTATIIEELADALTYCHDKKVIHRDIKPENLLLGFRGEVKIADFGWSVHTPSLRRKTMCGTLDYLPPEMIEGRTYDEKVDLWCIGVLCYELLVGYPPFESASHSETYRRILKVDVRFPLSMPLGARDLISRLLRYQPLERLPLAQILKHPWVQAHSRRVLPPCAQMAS

Compound	% Binding [1] [%]	% Binding [2] [%]	% Binding [3] [%]	% Binding [4] [%]	% Binding [5] [%]	% Binding [6] [%]	% Binding [7] [%]	% Binding [8] [%]	% Binding [9] [%]	% Binding [10] [%]	% Binding [11] [%]	% Binding [12] [%]	% Binding [13] [%]	% Binding [14] [%]	% Binding [15] [%]	% Binding [16] [%]	% Binding [17] [%]	% Binding [18] [%]	% Binding [19] [%]	% Binding [20] [%]	other results
NC(=O)c1cc(-c2ccncc2)c[nH]1 [Compound A, 4-Pyridin-4-yl-1H-pyrrole-2-carboxylic acid amide]	<50	<50	<50	<50	<50	<50	<50	<50	<50	<50	<50	<50	<50	<50	<50	<50	<50	<50	<50	<50	% Binding [21]: <50%; % Binding [22]: <50%; % Binding [23]: <50%; % Binding [24]: 97%; % Binding [25]: <50%; % Binding [26]: 69%; % Binding [27]: <50%; % Binding [28]: <50%; % Binding [29]: <50%; % Binding [30]: <50%; % Binding [31]: <50%; % Binding [32]: <50%; % Binding [33]: <50%; % Binding [34]: 74%; % Binding [35]: <50%; % Binding [36]: <50%; % Binding [37]: <50%; % Binding [38]: <50%; % Binding [39]: <50%
COc1cc(OC)c(C=C2C(O)=Nc3ccccc32)c(OC)c1 [IC261, 3-[(2,4,6-trimethoxyphenyl)methylidenyl]-indolin-2-one]	<50	<50	<50	<50	<50	<50	<50	<50	<50	<50	<50	<50	<50	<50	<50	<50	<50	<50	<50	<50	% Binding [21]: <50%; % Binding [22]: <50%; % Binding [23]: <50%; % Binding [24]: <50%; % Binding [25]: <50%; % Binding [26]: <50%; % Binding [27]: <50%; % Binding [28]: <50%; % Binding [29]: <50%; % Binding [30]: <50%; % Binding [31]: <50%; % Binding [32]: <50%; % Binding [33]: <50%; % Binding [34]: <50%; % Binding [35]: <50%; % Binding [36]: <50%; % Binding [37]: <50%; % Binding [38]: <50%; % Binding [39]: <50%
